Consider 23 compounds from patent US20230212122A1, “MITOCHONDRIAL TARGETING COMPOUNDS FOR THE TREATMENT OF ASSOCIATED DISEASES” (The Regents of the University of Michigan, priority 2020, published 2023).

One assay relates to MIA PaCa-2 cells. Put plainly: MTT assay, cancer cell growth inhibition (MIA PaCa-2). It is filed as cell-based. To be noted: Homo sapiens, MIA PaCa-2, 168 h, 7 days of treatment, read-out: MiaPaCa IC50. As for the experimental part:
(§1) Measurement of cancer cell growth inhibition of the compounds of invention Cytotoxicity of the compounds was assessed by MTT assay. In brief, MIA PaCa-2 cells or BxPc3 cells were seeded in 96-well microtitre plates at density of 200 cells/well. After overnight attachment, cells were treated with compounds at indicated concentration. After 7 days of treatment, MTT solution (3 mg/ml, 20 μl) was added to each well and cells were incubated for 3 h at 37° C. After incubation, media from each well was removed and the dark blue formazan crystals formed by live cells were dissolved in DMSO ([…] per well). The absorbance intensity was measured at 570 nm on a microplate reader (Molecular Devices, Sunnyvale, Calif., USA). The half maximal inhibitory concentration (IC50) value were calculated using 4 or 6 dots curve plotted with Cumulative Gaussian equation or Log(inhibitor) vs. response equation in GraphPad Prism.

The test system of the next assay is BxPc3 cells. Briefly: MTT assay, cancer cell growth inhibition (BxPC-3). It is filed as cell-based. The settings on record: Homo sapiens, BXPC-3, 168 h, 7 days of treatment. As to the method:
as §1

For `CCN(CC)S(=O)(=O)c1ccc(S(=O)(=O)N2CCC[C@@H](c3nc(C)no3)C2)cc1` [DX3-122B, (R)-N,N-diethyl-4-((3-(3-methyl-1,2,4-oxadiazol-5-yl)piperidin-1-yl)sulfonyl)benzenesulfonamide], the IC50 stood at 4120 ± 1160 nM in the assay with MIA PaCa-2 cells and 2860 ± 3140 nM in the assay on BxPc3 cells.

With `CCN(CC)S(=O)(=O)c1ccc(S(=O)(=O)N2CCC[C@@H](C(=O)N[C@@H]3CCOC3)C2)cc1` [DX3-107B, (R)-1-((4-(N,N-diethylsulfamoyl)phenyl)sulfonyl)-N-((R)-tetrahydrofuran-3-yl)piperidine-3-carboxamide], the 50% inhibitory concentration (IC50) turned out to be 750 ± 80 nM in the assay on MIA PaCa-2 cells and 2270 ± 610 nM with BxPc3 cells.

As for `CCOC(=O)[C@@H]1CCCN(S(=O)(=O)c2ccc(Oc3ccc(S(=O)(=O)N(CC)CC)cc3)cc2)C1` [DX2-230, ethyl (R)-1-((4-(4-(N,N-diethylsulfamoyl)phenoxy)phenyl)sulfonyl)piperidine-3-carboxylate], the concentration for half-maximal inhibition (IC50) was found to be 3920 ± 890 nM with MIA PaCa-2 cells and 3880 ± 570 nM in the assay on BxPc3 cells.

Consider `CCN(CC)S(=O)(=O)c1ccc(S(=O)(=O)N2CCC[C@@H](C(=O)NC3COC3)C2)cc1` [DX2-242, (R)-1-((4-(N,N-diethylsulfamoyl)phenyl)sulfonyl)-N-(oxetan-3-yl)piperidine-3-carboxamide], for which the IC50 is 2340 ± 1010 nM in the assay with MIA PaCa-2 cells and 13800 ± 3580 nM in the assay with BxPc3 cells.

For the compound `CCOC(=O)[C@@H]1C[C@H](O)CN(S(=O)(=O)c2ccc(S(=O)(=O)N(CC)CC)cc2)C1` (relative stereo) [DX3-14B-P1, (cis)-ethyl 1-((4-(N,N-diethylsulfamoyl)phenyl)sulfonyl)-5-hydroxypiperidine-3-carboxylate], the IC50 with MIA PaCa-2 cells is 1350 ± 590 nM; in the assay with BxPc3 cells, 3290 ± 60 nM.

For the compound `CCOC(=O)c1cccc(S(=O)(=O)c2ccc(S(=O)(=O)N(CC)CC)cc2)c1` [DX3-3, ethyl 3-((4-(N,N-diethylsulfamoyl)phenyl)sulfonyl)benzoate], the IC50 with MIA PaCa-2 cells was 4120 ± 2440 nM; in the assay on BxPc3 cells, 2290 ± 700 nM.

For the compound `CCN(CC)S(=O)(=O)c1ccc(S(=O)(=O)N2CCC[C@@H](C(=O)OC3CC3)C2)cc1` [DX2-263, cyclopropyl (R)-1-((4-(N,N-diethylsulfamoyl)phenyl)sulfonyl)piperidine-3-carboxylate], the values for the 50% inhibitory concentration (IC50) with MIA PaCa-2 cells and in the assay with BxPc3 cells were 300 ± 130 nM and 350 ± 60 nM, respectively.

As for `CCN(CC)S(=O)(=O)c1ccc(S(=O)(=O)N2CCC[C@@H](C(=O)N[C@H]3CCN(C(=O)OC(C)(C)C)C3)C2)cc1` [DX3-119, tert-butyl (S)-3-((R)-1-((4-(N,N-diethylsulfamoyl)phenyl)sulfonyl)piperidine-3-carboxamido)pyrrolidine-1-carboxylate], the IC50 in the assay with MIA PaCa-2 cells turned out to be 130 ± 40 nM; in the assay with BxPc3 cells, 330 ± 120 nM.

For `CCN(CC)S(=O)(=O)c1ccc(S(=O)(=O)N2CCC[C@@H](C(=O)N3CC4(CN(C(=O)OC(C)(C)C)C4)C3)C2)cc1` [DX3-120, tert-butyl (R)-6-(1-((4-(N,N-diethylsulfamoyl)phenyl)sulfonyl)piperidine-3-carbonyl)-2,6-diazaspiro[3.3]heptane-2-carboxylate], the results for the IC50 in the assay on MIA PaCa-2 cells and in the assay on BxPc3 cells were 430 ± 180 nM and 1100 ± 160 nM, respectively.

Regarding `CCOC(=O)[C@@H]1CCCN(S(=O)(=O)c2ccc(S(=O)(=O)N3CCCCC3)cc2)C1` [DX2-265, ethyl (R)-1-((4-(piperidin-1-ylsulfonyl)phenyl)sulfonyl)piperidine-3-carboxylate], the IC50 came out at 2870 ± 490 nM in the assay with MIA PaCa-2 cells and 3290 ± 740 nM in the assay with BxPc3 cells.

With `CCOC(=O)C12CC(CN(S(=O)(=O)c3ccc(S(=O)(=O)N(CC)CC)cc3)C1)C2` [DX3-115, ethyl 3-((4-(N,N-diethylsulfamoyl)phenyl)sulfonyl)-3-azabicyclo[3.1.1]heptane-1-carboxylate], the IC50 in the assay on MIA PaCa-2 cells is 1040 ± 450 nM; in the assay with BxPc3 cells, 1230 ± 790 nM.

As for `CCOC(=O)[C@@H]1CCCN(S(=O)(=O)c2ccc(S(=N)(=O)N(CC)CC)cc2)C1` (stereo partly drawn) [DX3-90, ethyl (3R)-1-((4-(N,N-diethylsulfamidimidoyl)phenyl)sulfonyl)piperidine-3-carboxylate], the IC50 in the assay with MIA PaCa-2 cells stood at 2550 ± 150 nM; in the assay on BxPc3 cells it was 3590 ± 1390 nM.

In the case of `CCOC(=O)[C@@H]1CCCN(S(=O)(=O)c2ccc(S(=O)(=O)N(CC)CC)c(F)c2)C1` [DX2-275, ethyl (R)-1-((4-(N,N-diethylsulfamoyl)-3-fluorophenyl)sulfonyl)piperidine-3-carboxylate], the figures for the 50% inhibitory concentration (IC50) in the assay on MIA PaCa-2 cells and in the assay on BxPc3 cells were 930 ± 360 nM and 1610 ± 370 nM, respectively.

As to `CCOC(=O)C1CN(S(=O)(=O)c2ccc(S(=O)(=O)N(CC)CC)cc2)CCN1` (stereo not drawn) [DX3-44B, ethyl 4-((4-(N,N-diethylsulfamoyl)phenyl)sulfonyl)piperazine-2-carboxylate], the IC50 in the assay with MIA PaCa-2 cells was 4700 ± 1920 nM; in the assay on BxPc3 cells, 6770 ± 520 nM.

For `CCOC(=O)C1(F)CCCN(S(=O)(=O)c2ccc(S(=O)(=O)N(CC)CC)cc2)C1` (stereo not drawn) [DX3-47, ethyl 1-((4-(N,N-diethylsulfamoyl)phenyl)sulfonyl)-3-fluoropiperidine-3-carboxylate], the IC50 with MIA PaCa-2 cells was 2940 ± 320 nM; with BxPc3 cells, 4920 ± 1940 nM.

`CCN(CC)S(=O)(=O)c1ccc(S(=O)(=O)N2CCC[C@@H](C(=O)N[C@@H]3CCN(C(=O)c4ccccc4)C3)C2)cc1` [DX3-125, (R)-N-((R)-1-benzoylpyrrolidin-3-yl)-1-((4-(N,N-diethylsulfamoyl)phenyl)sulfonyl)piperidine-3-carboxamide]: the IC50 was determined as 940 nM in the assay on MIA PaCa-2 cells and 3720 nM in the assay with BxPc3 cells.

With `CCN(CC)S(=O)(=O)c1ccc(S(=O)(=O)N2CCC[C@@H](C(=O)N3CCOCC3)C2)cc1` [DX3-121B, (R)-N,N-diethyl-4-((3-(morpholine-4-carbonyl)piperidin-1-yl)sulfonyl)benzenesulfonamide], in the assay on MIA PaCa-2 cells, the IC50 was determined as 350 ± 20 nM.

For `CCOC(=O)[C@H]1CCCN(S(=O)(=O)c2ccc(S(=O)(=O)N(CC)CC)cc2)C1` [DX2-202, ethyl (S)-1-((4-(N,N-diethylsulfamoyl)phenyl)sulfonyl)piperidine-3-carboxylate], the IC50 was determined as 6080 ± 760 nM in the assay with MIA PaCa-2 cells and 6800 ± 2100 nM in the assay with BxPc3 cells.

Take `CCOC(=O)[C@@H]1CCCN(S(=O)(=O)c2ccc(C(=O)N(CC)CC)cc2)C1` [DX3-78B, ethyl (R)-1-((4-(diethylcarbamoyl)phenyl)sulfonyl)piperidine-3-carboxylate]: the IC50 with MIA PaCa-2 cells amounted to 280 nM; with BxPc3 cells, 620 nM.

With `CCN(CC)S(=O)(=O)c1ccc(S(=O)(=O)N2CCCC(S(=O)(=O)N(C)C)C2)cc1` (stereo not drawn) [DX3-39, 1-((4-(N,N-diethylsulfamoyl)phenyl)sulfonyl)-N,N-dimethylpiperidine-3-sulfonamide], the 50% inhibitory concentration (IC50) stood at 5100 ± 1290 nM in the assay with MIA PaCa-2 cells and 6300 ± 1440 nM in the assay with BxPc3 cells.

As for `CCN(CC)S(=O)(=O)c1ccc(S(=O)(=O)N2CCCC(F)C2)cc1` (stereo not drawn) [DX3-49B, N,N-diethyl-4-((3-fluoropiperidin-1-yl)sulfonyl)benzenesulfonamide], the IC50 in the assay with MIA PaCa-2 cells was found to be 3650 ± 1680 nM; in the assay on BxPc3 cells, 8270 ± 2520 nM.

As for `CCOC(=O)[C@@H]1CCCN(S(=N)(=O)c2ccc(S(=O)(=O)N(CC)CC)cc2)C1` (stereo partly drawn) [DX2-225, ethyl (3R)-1-(4-(N,N-diethylsulfamoyl)phenylsulfonimidoyl)piperidine-3-carboxylate], the figures for the half-inhibitory concentration (IC50) in the assay with MIA PaCa-2 cells and in the assay with BxPc3 cells were 12100 ± 3850 nM and 13400 ± 4580 nM, respectively.

As for `CCOC(=O)[C@@H]1CCCN(S(=O)(=O)c2ccc(S(=O)(=O)N(CC)CC)cn2)C1` [DX2-293, ethyl (R)-1-((5-(N,N-diethylsulfamoyl)pyridin-2-yl)sulfonyl)piperidine-3-carboxylate], the results for the concentration for half-maximal inhibition (IC50) in the assay with MIA PaCa-2 cells and in the assay on BxPc3 cells were 1300 ± 450 nM and 1370 ± 520 nM, respectively.
